In publication PMC4290723 (British Journal of Pharmacology, 2014) one finds remaining activity data, which are given here for two molecules.

The target of this experiment is T1, RoDH4 (also named RDH16) (Homo sapiens, UniProt O75452).
T1 sequence (O75452 1-317): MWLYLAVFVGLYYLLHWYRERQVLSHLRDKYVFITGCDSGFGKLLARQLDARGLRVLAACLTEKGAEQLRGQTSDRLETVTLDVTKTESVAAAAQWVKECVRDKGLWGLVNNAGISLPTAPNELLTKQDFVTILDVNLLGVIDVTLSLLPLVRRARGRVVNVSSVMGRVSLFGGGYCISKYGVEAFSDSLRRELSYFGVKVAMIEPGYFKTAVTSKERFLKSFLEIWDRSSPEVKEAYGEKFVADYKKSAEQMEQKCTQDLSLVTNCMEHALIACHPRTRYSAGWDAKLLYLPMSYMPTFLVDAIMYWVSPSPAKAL
Briefly: single-concentration ([…]) inhibition of allopregnanolone oxidation by membranes of RoDH4-transfected HEK293 cells. The class given is cell-based.

Where two headings read alike, the source gives them in different places.

For `NCCC(Oc1ccc(C(F)(F)F)cc1)c1ccccc1` (centres unmarked) [norfluoxetine], the remaining activity at 240 µM (HEK293; read-out: % control at 240 μM) was found to be 37.8 ± 0.95%.

With `CN(C)CCCN1c2ccccc2CCc2ccccc21` [imipramine], the remaining activity at 240 µM (HEK293, read-out: % control at 240 μM) came out at 25.45 ± 0.04%.
